Measured values published in patent US6121257A, “Sulfamate containing macrocyclic immunomodulators” (Abbott Laboratories, priority 1999, dated 2000).

Legend:
[1] = test system: human mixed lymphocyte reaction (MLR); assay: human mixed lymphocyte reaction (MLR) assay; type: cell-based; settings: Table 1
Description: The immunosuppressant activity of the compounds of the present invention was determined using the human mixed lymphocyte reaction (MLR) assay described by Kino, T. et al., in Transplantation Proceedings, XIX(5):36-39, Suppl. 6 (1987), hereby incorporated by reference.

in vivo = assay: in vivo; design: species or system Lewis rats; settings: rat, 5 mg/kg
Description: In Vivo Assay of Biological Activity Whole blood concetration in the Rat.
Lewis rats (obtained from Charles River, Wilmington, Mass.), weighing 225-250 grams, were acclimated for one week in a AAALAC approved facility. All animals were fasted overnight prior to dosing and throughout the study period but were permitted free access to water. Groups of animals were given FK-506 or Example 14 at a dose of 5 mg/kg. Drugs were given in a 2 ml/kg volume of 10% ethanol, 40% propylene glycol and 2% cremophore in 5% dextrose solution for both oral (p.o.) and intraperitoneal (i.p.) administration, and in a 1 ml/kg volume of the same vehicle without cremophor for intravenous (i.v.) dosing. Blood samples were collected from the tail vein in heparinized tubes at selected time points 0.25, 2.0, and 4.0 hours after dosing.
Drugs were separated from the hemolyzed whole blood contaminants utilizing liquid-liquid extraction with ethyl acetate:hexane (1:1 by volume). Samples were centrifuged at 1200 x g for 10 minutes (4° C.) and a constant volume of the organic layer was transferred to a conical centrifuge tube and evaporated to dryness with a gentle stream of dry air over low heat (~35° C.). The samples were reconstituted with 40% (v/v) acetonitrile in water with vortexing. The compounds of interest were separated from the co-extracted components by a 5 cm×4.6 mm, 3 μm Spherisorb ODS-2 column (Regis, Morton Grove, Ill.) with an acetonitrile:methanol: 0.1% trifluoroacetic acid/0.01 M tetramethylammonium perchlorate mixture (45:5:50 by volume for FK506, 40:5:55 for analogue Example 14) at a flow rate of 1.0 ml/min with UV detection at 205 nm. The temperature of the HPLC column was maintained at 70° C.
The concentration of each sample in whole blood was calculated by a least squares linear regression analysis of the peak area compared to spiked rat blood standards.

Row | Compound | IC50 [1] [nM] | concentration at 0.25 h (in vivo) [ng/mL] | concentration at 2 h (in vivo) [ng/mL] | elimination from the blood (in vivo) | Whole Blood Concentration at 4 hours (in vivo; 240 min) [µg/mL] | concentration at 4 h (in vivo) [ng/mL]
1 | CC[C@@H]1/C=C(\C)C[C@H](C)C[C@H](OC)[C@H]2O[C@@](O)(C(=O)C(=O)N3CCCC[C@H]3C(=O)O[C@H](/C(C)=C/[C@@H]3CC[C@@H](OS(N)(=O)=O)[C@H](OC)C3)[C@H](C)[C@@H](O)CC1=O)[C@H](C)C[C@@H]2OC [Example 14] | 0.82 | 1400 | 50 | rapidly eliminated from the blood after 2 hours | 0.00 | –
2 | C=CC[C@@H]1/C=C(\C)C[C@H](C)C[C@H](OC)[C@H]2O[C@@](O)(C(=O)C(=O)N3CCCC[C@H]3C(=O)O[C@H](/C(C)=C/[C@@H]3CC[C@@H](O)[C@H](OC)C3)[C@H](C)[C@@H](O)CC1=O)[C@H](C)C[C@@H]2OC [FK-506, reference compound] | – | 1140 | 440 | – | – | 430
